Test [1] has as its target T1, hP2X3 (human Purinergic P2X receptors subtype 3), clone A (Homo sapiens, UniProt P56373).
T1 sequence (P56373 1-397): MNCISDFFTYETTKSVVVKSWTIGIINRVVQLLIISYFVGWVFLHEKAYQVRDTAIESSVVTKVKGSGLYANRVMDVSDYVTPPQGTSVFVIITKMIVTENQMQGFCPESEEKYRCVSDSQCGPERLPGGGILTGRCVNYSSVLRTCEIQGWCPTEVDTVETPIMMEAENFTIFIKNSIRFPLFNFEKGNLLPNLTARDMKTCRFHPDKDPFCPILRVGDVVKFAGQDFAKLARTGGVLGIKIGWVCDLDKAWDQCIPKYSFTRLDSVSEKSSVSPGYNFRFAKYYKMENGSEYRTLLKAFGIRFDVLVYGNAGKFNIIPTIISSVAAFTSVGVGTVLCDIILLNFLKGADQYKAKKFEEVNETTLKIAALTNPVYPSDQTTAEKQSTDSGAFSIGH
Briefly: hP2X3 FLIPR calcium (Fluo-4) antagonist assay, clone A. As to conditions: Human P2X3 FLIPR Clone A Mean IC50 (nM), RLE cells expressing hP2X3 clone A (AB016608); agonist 500 nM α,β-methylene-ATP.

In test [2] the target is T2, hP2X3 (human Purinergic P2X receptors subtype 3), clone B (Homo sapiens, UniProt P56373).
T2 sequence (P56373 1-397): T1 sequence (P56373 1-397)
Briefly: hP2X3 FLIPR calcium (Fluo-4) antagonist assay, clone B. As to conditions: Human P2X3 FLIPR Clone B IC50 (nM), RLE cells expressing hP2X3 clone B (NM_002559); agonist 500 nM α,β-methylene-ATP.

Turning to `CC(=O)N1CCN(c2nc(N[C@H](C)c3ccc(C(F)(F)F)c(F)c3)c3c(n2)C(=O)N(C(C)C)C3)CC1` [Example 182, (R)-2-(4-acetylpiperazin-1-yl)-4-(1-(3-fluoro-4-(trifluoromethyl)phenyl)ethylamino)-6-isopropyl-5H-pyrrolo[3,4-d]pyrimidin-7(6H)-one], the IC50 – broadly, the concentration needed to halve the response being measured – was 271 nM in test [1] and 240 nM in test [2].
On the same counts, the results for `CC(=O)N1CCN(c2nc(NCc3cc4ccccc4c(C)n3)c3c(n2)C(=O)N(C(C)C)C3)CC1` [Example 259, 2-(4-acetylpiperazin-1-yl)-6-isopropyl-4-((1-methylisoquinolin-3-yl)methylamino)-5H-pyrrolo[3,4-d]pyrimidin-7(6H)-one] are 27.2 nM and 16 nM.
On the same counts, the results for `CC(=O)N1CCN(c2nc3c(c(N4CCCC4c4ccc(C)cc4)n2)CN(C(C)C)C3=O)CC1` (centres unmarked) [Example 296, 2-(4-acetylpiperazin-1-yl)-6-(1-methylethyl)-4-[2-(4-methylphenyl)pyrrolidin-1-yl]-5,6-dihydro-7H-pyrrolo[3,4-d]pyrimidin-7-one] are 1190 nM and 1400 nM.
Take `CC(=O)N1CCN(c2nc3c(c(N(C)C(C)c4ccc5ncccc5c4)n2)CN(C(C)C)C3=O)CC1` (single isomer, unassigned) [Example 260, 2-(4-acetylpiperazin-1-yl)-6-isopropyl-4-(methyl(1-(quinolin-6-yl)ethyl)amino)-5H-pyrrolo[3,4-d]pyrimidin-7(6H)-one]: the concentration for half-maximal inhibition (IC50) in test [1] turned out to be 1900 nM; in test [2], 2300 nM.
As for `CC(=O)c1ccc(CC2CCCN2c2nc(N3CCN(C(C)=O)CC3)nc3c2CN(C(C)C)C3=O)cc1` (centres unmarked) [Example 294, 4-[2-(4-acetylbenzyl)pyrrolidin-1-yl]-2-(4-acetylpiperazin-1-yl)-6-(1-methylethyl)-5,6-dihydro-7H-pyrrolo[3,4-d]pyrimidin-7-one], the IC50 in test [1] came to 1840 nM; in test [2] it was 980 nM.
On the same counts, the results for `CC(=O)N1CCN(c2nc(N[C@H](C)c3ccc(C#N)cc3)c3c(n2)C(=O)N(C(C)C)C3)CC1` [Example 351, (R)-4-(1-(2-(4-acetylpiperazin-1-yl)-6-isopropyl-7-oxo-6,7-dihydro-5H-pyrrolo[3,4-d]pyrimidin-4-ylamino)ethyl)benzonitrile] are 1940 nM and 3300 nM.
The matching figures for `CC(=O)N1CCN(c2nc(N[C@H](C)c3cccc(OC(F)F)c3)c3c(n2)C(=O)N(C(C)C)C3)CC1` [Example 181, (R)-2-(4-acetylpiperazin-1-yl)-4-(1-(3-(difluoromethoxy)phenyl)ethylamino)-6-isopropyl-5H-pyrrolo[3,4-d]pyrimidin-7(6H)-one]: 175 nM and 320 nM.
On the same counts, the results for `CC(=O)N1CCN(c2nc(NCc3nc4ccccc4s3)c3c(n2)C(=O)N(C(C)C)C3)CC1` [Example 199, 2-(4-acetylpiperazin-1-yl)-4-(benzo[d]thiazol-2-ylmethylamino)-6-isopropyl-5H-pyrrolo[3,4-d]pyrimidin-7(6H)-one] are 5050 nM and 2300 nM.
Turning to `CC(C)N1Cc2c(nc(N3CCN(C)C(=O)C3)nc2N(C)Cc2cc3ccccc3cn2)C1=O` [Example 200, 6-isopropyl-4-((isoquinolin-3-ylmethyl)(methyl)amino)-2-(4-methyl-3-oxopiperazin-1-yl)-5H-pyrrolo[3,4-d]pyrimidin-7(6H)-one], the half-maximal inhibitory concentration (IC50) was found to be 501 nM in test [1] and 790 nM in test [2].
On the same counts, the results for `COc1ccc(C2CCCN2c2nc(N3CCN(C(C)=O)CC3)nc3c2CN(C(C)C)C3=O)cc1C` (centres unmarked) [Example 295, 2-(4-acetylpiperazin-1-yl)-4-[2-(4-methoxy-3-methylphenyl)pyrrolidin-1-yl]-6-(1-methylethyl)-5,6-dihydro-7H-pyrrolo[3,4-d]pyrimidin-7-one] are 824 nM and 730 nM.
The matching figures for `CC(=O)N1CCN(c2nc(N[C@H](C)c3ccc(C(F)(F)F)cc3F)c3c(n2)C(=O)N(C(C)C)C3)CC1` [Example 186, (R)-2-(4-acetylpiperazin-1-yl)-4-(1-(2-fluoro-4-(trifluoromethyl)phenyl)ethylamino)-6-isopropyl-5H-pyrrolo[3,4-d]pyrimidin-7(6H)-one]: 138 nM and 100 nM.
Consider `CCOc1ccc([C@@H](C)Nc2nc(N3CCN(C(C)=O)CC3)nc3c2CN(C(C)C)C3=O)c(OC)c1` [Example 202, (R)-2-(4-acetylpiperazin-1-yl)-4-(1-(4-ethoxy-2-methoxyphenyl)ethylamino)-6-isopropyl-5H-pyrrolo[3,4-d]pyrimidin-7(6H)-one], for which the figures for the IC50 in test [1] and in test [2] were 47 nM and 51 nM, respectively.
The matching figures for `CCC(C)N1Cc2c(nc(N3CCN(C(C)=O)CC3)nc2N(CC)Cc2cc3ccccc3cn2)C1=O` (single isomer, unassigned) [Example 318, 2-(4-acetylpiperazin-1-yl)-4-[ethyl(isoquinolin-3-ylmethyl)amino]-6-(1-methylpropyl)-5,6-dihydro-7H-pyrrolo[3,4-d]pyrimidin-7-one]: 43 nM and 41 nM.
On the same counts, the results for `COc1cc(OC(C)C)ccc1[C@@H](C)Nc1nc(N2CCN(C(C)=O)CC2)nc2c1CN(C(C)C)C2=O` [Example 203, (R)-2-(4-acetylpiperazin-1-yl)-4-(1-(4-isopropoxy-2-methoxyphenyl)ethylamino)-6-isopropyl-5H-pyrrolo[3,4-d]pyrimidin-7(6H)-one] are 65.8 nM and 62 nM.
On the same counts, the results for `CC(=O)N1CCN(c2nc(N[C@H](C)c3cc(C(F)(F)F)ccc3F)c3c(n2)C(=O)N(C(C)C)C3)CC1` [Example 183, (R)-2-(4-acetylpiperazin-1-yl)-4-(1-(2-fluoro-5-(trifluoromethyl)phenyl)ethylamino)-6-isopropyl-5H-pyrrolo[3,4-d]pyrimidin-7(6H)-one] are 199 nM and 170 nM.
For `COCc1ccc(CC2CCCN2c2nc(N3CCN(C(C)=O)CC3)nc3c2CN(C(C)C)C3=O)cc1` (centres unmarked) [Example 293, 2-(4-acetylpiperazin-1-yl)-4-{2-[4-(methoxymethyl)benzyl]pyrrolidin-1-yl}-6-(1-methylethyl)-5,6-dihydro-7H-pyrrolo[3,4-d]pyrimidin-7-one], the values for the IC50 in test [1] and in test [2] were 1590 nM and 1400 nM, respectively.
The matching figures for `CCOc1ccc([C@@H](C)N(C)c2nc(N3CCN(C(C)=O)CC3)nc3c2CN(C(C)C)C3=O)cc1F` [Example 262, (R)-2-(4-acetylpiperazin-1-yl)-4-((1-(4-ethoxy-3-fluorophenyl)ethyl)(methyl)amino)-6-isopropyl-5H-pyrrolo[3,4-d]pyrimidin-7(6H)-one]: 84.5 nM and 85 nM.
The matching figures for `CCOc1ccc([C@H](CO)Nc2nc(N3CCN(C(C)=O)CC3)nc3c2CN(C(C)C)C3=O)cc1` [Example 180, (R)-2-(4-acetylpiperazin-1-yl)-4-(1-(4-ethoxyphenyl)-2-hydroxyethylamino)-6-isopropyl-5H-pyrrolo[3,4-d]pyrimidin-7(6H)-one]: 7120 nM and 5800 nM.
On the same counts, the results for `CC[C@H](C)N1Cc2c(nc(N3CCN(C(C)=O)CC3)nc2N(C)Cc2cnc3ccccc3c2)C1=O` [Example 319, 2-(4-acetylpiperazin-1-yl)-6-[(1S)-1-methylpropyl]-4-[methyl(quinolin-3-ylmethyl)amino]-5,6-dihydro-7H-pyrrolo[3,4-d]pyrimidin-7-one] are 53.6 nM and 47 nM.

The values are drawn from patent US20090099195A1 (ASTRAZENECA AB, priority 2007, published 2009).
